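The concentration for 50% growth inhibition is given as GI50. At the TGI there is no net growth.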
How the values were obtained:
Experiment in all cases: DTP human tumour cell line panel, 384-well format
[1] = tested on: SF-268 CNS
[2] = tested on: COLO 205 colon
[3] = tested on: SW-620 colon
[4] = tested on: SK-OV-3 ovarian
[5] = tested on: OVCAR-5 ovarian
[6] = tested on: KM12 colon
[7] = tested on: OVCAR-4 ovarian
[8] = tested on: MOLT-4 leukemia
[9] = tested on: EKVX NSCLC
[10] = tested on: K-562 leukemia
[11] = tested on: ACHN renal
[12] = tested on: HCT-15 colon
[13] = tested on: SK-MEL-2 melanoma
[14] = tested on: UACC-62 melanoma
[15] = tested on: MDA-MB-435 melanoma
[16] = tested on: NCI-H460 NSCLC
[17] = tested on: MDA-MB-231 breast
[18] = tested on: HS 578T breast
[19] = tested on: OVCAR-8 ovarian
[20] = tested on: HL-60(TB) leukemia
[21] = tested on: DU-145 prostate
[22] = tested on: SF-295 CNS
[23] = tested on: MALME-3M melanoma
[24] = tested on: MCF7 breast
[25] = tested on: NCI-H226 lung
[26] = tested on: BT-549 breast
[27] = tested on: UACC-257 melanoma
[28] = tested on: HT29 colon
[29] = tested on: IGROV1 ovarian
[30] = tested on: 786-0 renal
[31] = tested on: MDA-MB-468 breast
[32] = tested on: NCI-H23 lung
[33] = tested on: OVCAR-3 ovarian
[34] = tested on: SF-539 CNS
[35] = tested on: A498 renal
[36] = tested on: SNB-19 CNS
[37] = tested on: A549 NSCLC
[38] = tested on: HCC-2998 colon
[39] = tested on: HOP-92 NSCLC
[40] = tested on: SNB-75 CNS
[41] = tested on: SR leukemia
[42] = tested on: RPMI-8226 leukemia
[43] = tested on: T-47D breast
[44] = tested on: NCI/ADR-RES ovarian
[45] = tested on: RXF 393 renal
[46] = tested on: HCT-116 colon
[47] = tested on: PC-3 prostate
[48] = tested on: SK-MEL-28 melanoma
[49] = tested on: NCI-H322M lung
[50] = tested on: U251 glioblastoma
[51] = tested on: SN12C renal
[52] = tested on: SK-MEL-5 melanoma
[53] = tested on: M14 melanoma
[54] = tested on: CCRF-CEM leukemia
[55] = tested on: LOX IMVI melanoma
[56] = tested on: NCI-H522 lung
[57] = tested on: CAKI-1 renal
[58] = tested on: UO-31 renal
[59] = tested on: TK-10 renal
[60] = tested on: HOP-62 NSCLC

COc1cc2nc(C)nc(N[C@H](C)c3cc(N)cc(C(F)(F)F)c3)c2cc1O[C@H]1CCOC1
GI50 [1]: 13.5 µM
TGI [1]: 26.3 µM
GI50 [2]: 14 µM
TGI [2]: 27.1 µM
GI50 [3]: 14.1 µM
TGI [3]: 27.2 µM
GI50 [4]: 12.5 µM
TGI [4]: 25.1 µM
GI50 [5]: 11 µM
TGI [5]: 23.1 µM
GI50 [6]: 0.98 µM
TGI [6]: 17.1 µM
GI50 [7]: 8.7 µM
TGI [7]: 21.4 µM
GI50 [8]: 4.45 µM
TGI [8]: 17.4 µM
GI50 [9]: 2.73 µM
TGI [9]: 16.2 µM
GI50 [10]: 0.0364 µM
TGI [10]: 12.5 µM
GI50 [11]: 13.8 µM
TGI [11]: 26.7 µM
GI50 [12]: 11.6 µM
TGI [12]: 23.9 µM
GI50 [13]: 11.1 µM
TGI [13]: 23.1 µM
GI50 [14]: 13.4 µM
TGI [14]: 26.2 µM
GI50 [15]: 14.5 µM
TGI [15]: 27.6 µM
GI50 [16]: 12 µM
TGI [16]: 24.6 µM
GI50 [17]: 13.5 µM
TGI [17]: 26.6 µM
GI50 [18]: 2.1 µM
TGI [18]: 15.9 µM
GI50 [19]: 12.7 µM
TGI [19]: 25.3 µM
GI50 [20]: 3.91 µM
TGI [20]: 14.4 µM
GI50 [21]: 14.6 µM
TGI [21]: 27.9 µM
GI50 [22]: 12.8 µM
TGI [22]: 25.4 µM
GI50 [23]: 8.63 µM
TGI [23]: 21.1 µM
GI50 [24]: 11.3 µM
TGI [24]: 23.5 µM
GI50 [25]: 3.24 µM
TGI [25]: 19.1 µM
GI50 [26]: 8.77 µM
TGI [26]: 21.2 µM
GI50 [27]: 4.86 µM
TGI [27]: 16.6 µM
GI50 [28]: 4.69 µM
TGI [28]: 16.2 µM
GI50 [29]: 8.69 µM
TGI [29]: 21.5 µM
GI50 [30]: 11.8 µM
TGI [30]: 24.2 µM
GI50 [31]: 1.35 µM
TGI [31]: 11.3 µM
GI50 [32]: 3.42 µM
TGI [32]: 17.7 µM
GI50 [33]: 6.28 µM
TGI [33]: 20.1 µM
GI50 [34]: 12.7 µM
TGI [34]: 25.3 µM
GI50 [35]: 8.87 µM
TGI [35]: 21.3 µM
GI50 [36]: 12.5 µM
TGI [36]: 25.1 µM
GI50 [37]: 14.5 µM
TGI [37]: 27.8 µM
GI50 [38]: 3.6 µM
TGI [38]: 15.9 µM
GI50 [39]: 0.0895 µM
TGI [39]: 5.19 µM
GI50 [40]: 6.26 µM
TGI [40]: 20 µM
GI50 [41]: 1.54 µM
TGI [41]: 8.64 µM
GI50 [42]: 2.13 µM
TGI [42]: 13.2 µM
GI50 [43]: 10.2 µM
TGI [43]: 21.9 µM
GI50 [44]: 12.5 µM
TGI [44]: 25.4 µM
GI50 [45]: 2.43 µM
TGI [45]: 12.1 µM
GI50 [46]: 10.5 µM
TGI [46]: 22.4 µM
GI50 [47]: 11 µM
TGI [47]: 23.1 µM
GI50 [48]: 12.6 µM
TGI [48]: 25.2 µM
GI50 [49]: 11.1 µM
TGI [49]: 23.1 µM
GI50 [50]: 10.9 µM
TGI [50]: 22.8 µM
GI50 [51]: 2.86 µM
TGI [51]: 18.2 µM
GI50 [52]: 3.15 µM
TGI [52]: 17.1 µM
GI50 [53]: 11.7 µM
TGI [53]: 23.9 µM
GI50 [54]: 9.35 µM
TGI [54]: 21.3 µM
GI50 [55]: 13.4 µM
TGI [55]: 26.3 µM
GI50 [56]: 2.34 µM
TGI [56]: 19.4 µM
GI50 [57]: 1.97 µM
TGI [57]: 17 µM
GI50 [58]: 12.2 µM
TGI [58]: 24.7 µM
GI50 [59]: 10.9 µM
TGI [59]: 22.9 µM
GI50 [60]: 6.98 µM
TGI [60]: 20.1 µM
